≈ marks a conversion by molar mass, not a printed value.

Data set [1] is described as follows: Solubility in extremely nonpolar to polar solvents.
A short description of data set [2]: Homogeneous incorporation into aqueous polymer dispersions (Example 25 of WO-A-99/40123 repeated). Format: physicochemical. An excerpt:
Example 25 of WO-A-99/40123 was repeated to prepare aqueous polymer dispersions containing 15% by weight of the fluorescent colorant of Example 2 or […] of the near infrared absorber of Example 6 in homogeneous dispersion. The corresponding phenoxy-substituted derivatives, by contrast, were only incorporable with homogeneous results up to a concentration of respectively 7 and 1% by weight.

As to “1:1 mixture of N,N′-bis(2,6-diisopropylphenyl)-1,6,8,11,16,18-hexa(p-tert-octylphenoxy)-quaterrylene-3,4:13,14-tetracarboxylic diimide and N,N′-bis(2,6-diisopropyl-phenyl)-1,6,8,11,16,19-hexa(p-tert-octylphenoxy)quaterrylene-3,4:13,14-tetracarboxylic diimide [Example 6]”, in data set [1], the “Solubility in Isopropanol (50° C.)” value turned out to be 49 mg/mL, the “Solubility in Pentane (25° C.)” value was found to be 55 mg/mL and the “Solubility in Toluene (25° C.)” value was greater than 500 mg/mL.
For `CC(C)c1cccc(C(C)C)c1N1C(=O)c2cc(Oc3ccc(C(C)(C)CC(C)(C)C)cc3)c3c4cccc5c(Oc6ccc(C(C)(C)CC(C)(C)C)cc6)ccc(c6c(Oc7ccc(C(C)(C)CC(C)(C)C)cc7)cc(c2c36)C1=O)c54` [Example 1], in data set [1], the “Solubility in Isopropanol (50° C.)” value is 56 mg/mL (≈ 51.2 mM), the “Solubility in Pentane (25° C.)” value was found to be 53 mg/mL (≈ 48.4 mM) and the “Solubility in Toluene (25° C.)” value is greater than 250 mg/mL.
As for `CC(C)c1cccc(C(C)C)c1N1C(=O)c2cc(Oc3ccc(C(C)(C)CC(C)(C)C)cc3)c3c4c(Oc5ccc(C(C)(C)CC(C)(C)C)cc5)cc5c6c(cc(Oc7ccc(C(C)(C)CC(C)(C)C)cc7)c(c7c(Oc8ccc(C(C)(C)CC(C)(C)C)cc8)cc(c2c37)C1=O)c64)C(=O)N(c1c(C(C)C)cccc1C(C)C)C5=O` [Example 2], in data set [1], the “Solubility in Isopropanol (50° C.)” value came out at 92 mg/mL (≈ 60.2 mM), the “Solubility in Pentane (25° C.)” value turned out to be 81 mg/mL (≈ 53 mM) and the “Solubility in Toluene (25° C.)” value was greater than 400 mg/mL. Further, the “Concentration contained in homogeneous dispersion in aqueous polymer dispersion” value in data set [2] is on record as 15 % by weight.
For `CC(C)c1cccc(C(C)C)c1N1C(=O)c2cc(Oc3ccc(C(C)(C)CC4CCCCC4)cc3)c3c4c(Oc5ccc(C(C)(C)CC6CCCCC6)cc5)cc5c6c(cc(Oc7ccc(C(C)(C)CC8CCCCC8)cc7)c(c7c(Oc8ccc(C(C)(C)CC9CCCCC9)cc8)cc(c2c37)C1=O)c64)C(=O)N(c1c(C(C)C)cccc1C(C)C)C5=O` [Example 3], in data set [1], the “Solubility in Isopropanol (50° C.)” value is 87 mg/mL (≈ 53.3 mM), the “Solubility in Pentane (25° C.)” value is 65 mg/mL (≈ 39.8 mM) and the “Solubility in Toluene (25° C.)” value is greater than 350 mg/mL.
For `CC(C)c1cccc(C(C)C)c1N1C(=O)c2ccc3c4c(Oc5ccc(C(C)(C)CC(C)(C)C)cc5)cc5c6c(ccc(c7c(Oc8ccc(C(C)(C)CC(C)(C)C)cc8)cc(c2c37)C1=O)c64)C(=O)N(c1c(C(C)C)cccc1C(C)C)C5=O` [Example 4], in that order: 59 mg/mL (≈ 52.7 mM), 55 mg/mL (≈ 49.1 mM) and greater than 250 mg/mL.
With `CCCCCCCCCCCCN1C(=O)c2ccc3c4c(Oc5ccc(C(C)(C)CC(C)(C)C)cc5)cc5c6c(ccc(c7c(Oc8ccc(C(C)(C)CC(C)(C)C)cc8)cc(c2c37)C1=O)c64)C(=O)N(CCCCCCCCCCCC)C5=O` [Example 5], in data set [1], the “Solubility in Isopropanol (50° C.)” value turned out to be 47 mg/mL (≈ 41.4 mM), the “Solubility in Pentane (25° C.)” value turned out to be 24 mg/mL (≈ 21.1 mM) and the “Solubility in Toluene (25° C.)” value worked out at 155 mg/mL (≈ 136 mM).
